{"source": "patent US20120107916A1", "about": "“METHODS AND COMPOSITIONS FOR AFFECTING THE DIFFERENTIATION OF CLOSTRIDIA IN CULTURE” (priority 2009, published 2012)", "key": {"[1]": {"tested_on": "Clostridium acetobutylicum ATCC 824", "assay": "Final pH of cell-free culture supernatants of sequential batch cultures", "assay_type": "cell-based", "protocol": "(§1) Bacterial strains and media. Clostridium acetobutylicum ATCC 824 and C. beijerinckii NCIMB 8052 are available from several commercial microbial culture collections including the American Type Culture Collection (ATCC), Manassas, Va., USA. The strains were grown at 30° C. or 37° C. in YE broth, which contained, per liter: 5.0 g yeast extract, 2.5 g casamino acids, 1.0 g L-asparagine, 0.5 g cysteine.HCl, 56 mg K2HPO4, 56 mg KH2PO4, 82 mg anhydrous MgSO4, 8 mg FeSO4.H2O, 6 mg MnSO4.H2O and 10 g glucose. Alternatively, strains were grown in YEPG broth, which was identical to YE expect that K2HPO4 and KH2PO4 were increased to 145 mg/L each and glucose was increased to 60 g/L. The pH of the media was adjusted to 7.2 using 45% KOH prior to sterilization by autoclaving. Media were solidified by addition of 1.5% Bacteriological Agar, Actimedia Manufacturers, Inc., Lansing, Mich. All cultures were grown in anaerobic conditions using the AnaeroPack System, Mitsubishi Gas Chemical Co., Inc., Japan, and GasPak EZ Gas Generating Sachets, Becton, Dickinson and Co., Sparks, Md. Spore stocks were kept at room temperature on agar-solidified media and were activated by suspending spores in 0.5 mL to 1.0 mL of medium followed by heating for 10 min at 80° C. before inoculation into growth medium.\n(§2) Growth and pH measurements. Growth of bacterial cultures was measured spectrophotometrically using optical density at 600 nm and pH of cell-free culture supernatants was measured using a hand-held Shindengen ISFET pH Meter KS501, Shendengen Electric Manufacturing Co., Ltd., Bannockburn, Ill.\n(§3) Effect of peptide SEQ ID NO:143 addition on sequential batch cultures of C. acetobutylicum ATCC 824 grown at 30° C. Spores of C. acetobutylicum ATCC 824 were germinated and grown overnight at 30° C. under anaerobic conditions in YEPG medium. After about 24 h of growth, 75 μL of the culture was transferred (transfer 1) to each of four flasks that contained 10 mL of YEPG and either had no treatment or were treated with peptide SEQ ID NO:143 (see Table 8 and FIG. 1) at 1 nM, 10 nM or 50 nM. Thereafter, 75 μL of each culture was transferred, at the same time, every 24-48 h to 10 mL of fresh YEPG that contained the same peptide treatment or no treatment. Each culture was stopped after 96 hours of incubation and optical density, pH and ceric ion reactive chemicals were measured. Sequential batch culturing was continued through 5 transfers at which point the untreated culture and those treated with 1 nM and 10 nM of peptide SEQ ID NO:143 had stopped growing (Table 9).\n(§4) Effect of peptide SEQ ID NO:143 addition on sequential batch cultures of C. acetobutylicum ATCC 824 grown at 37° C. Spores of C. acetobutylicum ATCC 824 were germinated and grown overnight at 37° C. under anaerobic conditions in YEPG medium that either contained 50 nM of peptide SEQ ID NO:143 or no added peptide. After about 24 h of growth, 10 μL of the untreated culture was transferred (transfer 1) to each of two flasks that contained 10 mL of YEPG with either no treatment or with 50 nM peptide SEQ ID NO:143. At the same time, 10 μL of the culture that was germinated in the presence of peptide SEQ ID NO:143 was also transferred to 10 mL of YEPG that contained 50 nM of peptide SEQ ID NO:143. Thereafter, 10 μL of each culture was transferred, at the same time, every 24-48 h to 10 mL of fresh YEPG that contained the same peptide treatment or no treatment. Each culture was stopped after 72 hours if incubation and optical density, pH and ceric ion reactive chemicals were measured. Sequential batch culturing was continued through 3 transfers at which point the untreated culture and the culture that was germinated and transferred in 50 nM of peptide were still growing, while the culture that was treated with peptide after germination had stopped growing (Table 15 and FIG. 7)."}, "C. acetobutylicum": {"tested_on": "C. acetobutylicum", "assay": "Estimate of extended serial propagation in continuous culture from sequential batch transfers", "parameters": "species or system Clostridium acetobutylicum", "settings": "dilution rate 0.05/hour, from about 140 hours without peptide", "protocol": "Under these experimental conditions, and knowledge of the growth of C. acetobutylicum in culture, it was determined that each sequential transfer was equivalent to about seven bacterial generations ([…], Applied and Environmental Microbiology 59:4198-4202, 1993). […] An estimate of extended serial propagation in continuous culture may be expressed as extended time in continuous culture by taking the dilution rate into account. In continuous culture, the time for one generation is equal to the inverse of the dilution rate."}, "[2]": {"tested_on": "Clostridium acetobutylicum ATCC 824", "assay": "Growth (optical density at 600 nm) of sequential batch cultures", "assay_type": "cell-based", "protocol": "as §1, §2, §3, §4"}, "[3]": {"settings": "1 nM peptide, transfer 1, 96 h, 30° C."}, "[4]": {"settings": "1 nM peptide, transfer 2, 96 h, 30° C."}, "[5]": {"settings": "1 nM peptide, transfer 3, 96 h, 30° C."}, "[6]": {"settings": "1 nM peptide, transfer 4, 96 h, 30° C."}, "[7]": {"settings": "1 nM peptide, transfer 5, 96 h, 30° C."}, "[8]": {"settings": "10 nM peptide, transfer 1, 96 h, 30° C."}, "[9]": {"settings": "10 nM peptide, transfer 2, 96 h, 30° C."}, "[10]": {"settings": "10 nM peptide, transfer 3, 96 h, 30° C."}, "[11]": {"settings": "10 nM peptide, transfer 4, 96 h, 30° C."}, "[12]": {"settings": "50 nM peptide added after germination, transfer 1, 72 h, 37° C."}, "[13]": {"settings": "50 nM peptide added after germination, transfer 2, 72 h, 37° C."}, "[14]": {"settings": "50 nM peptide added after germination, transfer 3, 72 h, 37° C."}, "[15]": {"settings": "50 nM peptide, transfer 1, 96 h, 30° C."}, "[16]": {"settings": "50 nM peptide, transfer 2, 96 h, 30° C."}, "[17]": {"settings": "50 nM peptide, transfer 3, 96 h, 30° C."}, "[18]": {"settings": "50 nM peptide, transfer 4, 96 h, 30° C."}, "[19]": {"settings": "50-50: germinated and transferred in 50 nM peptide, transfer 1, 72 h, 37° C."}, "[20]": {"settings": "50-50: germinated and transferred in 50 nM peptide, transfer 2, 72 h, 37° C."}, "[21]": {"settings": "50-50: germinated and transferred in 50 nM peptide, transfer 3, 72 h, 37° C."}, "[22]": {"settings": "50-50: spores germinated in 50 nM peptide, transfer 0 (germinated culture), 72 h, 37° C."}}}
{"substance": "SYPGWSW [Peptide SEQ ID NO:143]", "values": [{"measurement": "Final pH of culture broths", "setting": "[1]; [3]", "result": 6.0}, {"measurement": "Final pH of culture broths", "setting": "[1]; [4]", "result": 4.4}, {"measurement": "Final pH of culture broths", "setting": "[1]; [5]", "result": 4.4}, {"measurement": "Final pH of culture broths", "setting": "[1]; [6]", "result": 6.0}, {"measurement": "Final pH of culture broths", "setting": "[1]; [7]", "result": 6.0}, {"measurement": "Final pH of culture broths", "setting": "[1]; [8]", "result": 4.4}, {"measurement": "Final pH of culture broths", "setting": "[1]; [9]", "result": 4.4}, {"measurement": "Final pH of culture broths", "setting": "[1]; [10]", "result": 4.5}, {"measurement": "Final pH of culture broths", "setting": "[1]; [11]", "result": 4.5}, {"measurement": "Final pH of culture broths", "setting": "[1]; 10 nM peptide, transfer 5, 96 h, 30° C., listed as SEQ ID NO: 143", "result": 6.0}, {"measurement": "Final pH of culture broths", "setting": "[1]; 10 nM peptide, transfer 5, 96 h, 30° C., listed as SEQ ID NO:143", "result": 5.9}, {"measurement": "Final pH of culture broths", "setting": "[1]; [12]", "result": 4.4}, {"measurement": "Final pH of culture broths", "setting": "[1]; [13]", "result": 6.0}, {"measurement": "Final pH of culture broths", "setting": "[1]; [14]", "result": 5.5}, {"measurement": "Final pH of culture broths", "setting": "[1]; [15]", "result": 4.4}, {"measurement": "Final pH of culture broths", "setting": "[1]; [16]", "result": 4.6}, {"measurement": "Final pH of culture broths", "setting": "[1]; [17]", "result": 4.5}, {"measurement": "Final pH of culture broths", "setting": "[1]; [18]", "result": 4.4}, {"measurement": "Final pH of culture broths", "setting": "[1]; 50 nM peptide, transfer 5, 96 h, 30° C., listed as SEQ ID NO: 143", "result": 4.3}, {"measurement": "Final pH of culture broths", "setting": "[1]; 50 nM peptide, transfer 5, 96 h, 30° C., listed as SEQ ID NO:143", "result": "remained low"}, {"measurement": "Final pH of culture broths", "setting": "[1]; [19]", "result": 4.5}, {"measurement": "Final pH of culture broths", "setting": "[1]; [20]", "result": 3.8}, {"measurement": "Final pH of culture broths", "setting": "[1]; [21]", "result": 4.6}, {"measurement": "Final pH of culture broths", "setting": "[1]; [22]", "result": 4.1}, {"measurement": "Expected time in continuous culture with peptide", "setting": "C. acetobutylicum", "result": "about 700 hours"}, {"measurement": "Last sequential transfer through which growth was allowed", "setting": "[2]; 1 nM peptide, 30° C., untreated culture did not grow after the second transfer", "result": "third transfer"}, {"measurement": "Optical density at 600 nm of culture broths", "setting": "[2]; [3]", "result": 0.005}, {"measurement": "Optical density at 600 nm of culture broths", "setting": "[2]; [4]", "result": 2.274}, {"measurement": "Optical density at 600 nm of culture broths", "setting": "[2]; [5]", "result": 2.165}, {"measurement": "Optical density at 600 nm of culture broths", "setting": "[2]; [6]", "result": 0.044}, {"measurement": "Optical density at 600 nm of culture broths", "setting": "[2]; [7]", "result": 0.004}, {"measurement": "Last sequential transfer through which growth was allowed", "setting": "[2]; 10 nM peptide, 30° C.", "result": "fourth transfer"}, {"measurement": "Optical density at 600 nm of culture broths", "setting": "[2]; [8]", "result": 2.001}, {"measurement": "Optical density at 600 nm of culture broths", "setting": "[2]; [9]", "result": 2.245}, {"measurement": "Optical density at 600 nm of culture broths", "setting": "[2]; [10]", "result": 2.379}, {"measurement": "Optical density at 600 nm of culture broths", "setting": "[2]; [11]", "result": 2.266}, {"measurement": "Optical density at 600 nm of culture broths", "setting": "[2]; 10 nM peptide, transfer 5, 96 h, 30° C.", "result": 0.028}, {"measurement": "Optical density at 600 nm of culture broths", "setting": "[2]; [12]", "result": 1.891}, {"measurement": "Optical density at 600 nm of culture broths", "setting": "[2]; [13]", "result": 0.011}, {"measurement": "Optical density at 600 nm of culture broths", "setting": "[2]; [14]", "result": 0.100}, {"measurement": "Last sequential transfer through which growth was extended", "setting": "[2]; 50 nM peptide, 30° C.", "result": "fifth transfer"}, {"measurement": "Optical density at 600 nm of culture broths", "setting": "[2]; [15]", "result": 1.879}, {"measurement": "Optical density at 600 nm of culture broths", "setting": "[2]; [16]", "result": 2.089}, {"measurement": "Optical density at 600 nm of culture broths", "setting": "[2]; [17]", "result": 2.313}, {"measurement": "Optical density at 600 nm of culture broths", "setting": "[2]; [18]", "result": 2.187}, {"measurement": "Optical density at 600 nm of culture broths", "setting": "[2]; 50 nM peptide, transfer 5, 96 h, 30° C.", "result": 2.173}, {"measurement": "Number of sequential transfers compared with a culture without added peptide", "setting": "[2]; 30° C., sequential batch cultures", "result": "at least four more times"}, {"measurement": "Optical density at 600 nm of culture broths", "setting": "[2]; [19]", "result": 1.715}, {"measurement": "Optical density at 600 nm of culture broths", "setting": "[2]; [20]", "result": 1.858}, {"measurement": "Optical density at 600 nm of culture broths", "setting": "[2]; [21]", "result": 1.485}, {"measurement": "Optical density at 600 nm of culture broths", "setting": "[2]; [22]", "result": 2.121}]}
